Here are results for 47 compounds from patent US11279714B2, “Anti-infective compounds” (priority 2014, dated 2022).

Data set [1] concerns Raw 264.7 cells infected with H37Rv-GFP. The data set is described as follows: microbe, parasite or virus in culture. Type of data set: cell-based, M. tuberculosis. The conditions noted are these: Mycobacterium tuberculosis, H37RV, 120 h; read-out: QIM (MIC50).
The test system of data set [2] is M. tuberculosis H37Rv expressing the green fluorescent protein (H37Rv-GFP). The data set is described as follows: microbe, parasite or virus in culture. Type of data set: cell-based. The conditions noted are these: Mycobacterium tuberculosis, H37RV, 120 h; read-out: QUM (MIC50).

Molecules are shown by their SMILES. In brackets after ≈: the same amount, converted by molar mass.

A word on the melting point: it is the temperature of the solid-liquid transition. `O=C(Nc1ccc(F)cc1)c1cc2sc(N3CCOCC3)nc2s1` [Compound 99] displayed a melting point of 240 °C. The MIC50 in data set [1] was less than 1 µM. In addition, in data set [2], the MIC50 is 1 to 20 µM (≈ 0.363 to 7.27 µg/mL).
The corresponding values for `COc1ccc(NC(=O)c2cc3scnc3s2)cc1` [Compound 75] are 212 °C, more than 20 µM and 1 to 20 µM (≈ 0.29 to 5.81 µg/mL).
Turning to `COC1CCN(c2nc3sc(C(=O)Nc4ccc5oc(C)nc5c4)cc3s2)CC1` [Compound 124], the melting point is 237.9 °C. Besides, the MIC50 in data set [1] is less than 1 µM. Further, the MIC50 in data set [2] was less than 1 µM.
On to `Cc1nc2cc(NC(=O)c3cc4sc(N5CCCC(C(=O)N(C)C)C5)nc4s3)ccc2o1` (stereo not drawn) [Compound 178], for which the melting point came out at 133.6 °C. Further, the MIC50 in data set [1] lay in the range of 1 to 20 µM (≈ 0.47 to 9.39 µg/mL). Further, the MIC50 in data set [2] lay within 1 to 20 µM (≈ 0.47 to 9.39 µg/mL).
Compound `CN(C)C(=O)C1CCN(c2nc3sc(C(=O)n4nc(-c5ccc(N)cc5)cc4O)cc3s2)CC1` [Compound 198] showed a melting point of 269 °C. For the same compound, the MIC50 in data set [1] is more than 20 µM. The MIC50 in data set [2] is more than 20 µM.
In turn, `COc1ccc(NCc2cc3sc(N4CCCCC4)nc3s2)cc1` [Compound 69] registered a melting point of 105 °C. For the same compound, the MIC50 in data set [1] is more than 20 µM. Further, the MIC50 in data set [2] was more than 20 µM.
`O=C(Nc1ccc(Oc2ccccc2)cc1)c1cc2nc(N3CCCCC3)sc2s1` [Compound 15] registered a melting point of 225.8 °C. Further, in data set [1], the MIC50 is more than 20 µM. Moreover, the MIC50 in data set [2] is more than 20 µM.
For `Cc1cc2cc(NC(=O)c3cc4sc(N5CCOCC5)nc4s3)ccc2o1` [Compound 135], the melting point amounted to 231.3 °C. Besides, the MIC50 in data set [1] is less than 1 µM. Besides, in data set [2], the MIC50 fell in the range of 1 to 20 µM (≈ 0.399 to 7.99 µg/mL).
The like results for `N#Cc1ccc(NC(=O)c2cc3nc(N4CCCCC4)sc3s2)cc1` [Compound 32] were, in that order, 163 °C, less than 1 µM and 1 to 20 µM (≈ 0.368 to 7.37 µg/mL).
The corresponding values for `COc1ccc(NC(=O)c2csc3nc(N4CCCCC4)sc23)cc1` [Compound 73] are 209.8 °C, more than 20 µM and more than 20 µM.
Take `CCc1ccc(NC(=O)c2cc3sc(N4CCCCC4)nc3s2)cc1` [Compound 38]: the melting point was found to be 198 °C. Also, in data set [1], the MIC50 was less than 1 µM. In data set [2], the MIC50 was in the range of 1 to 20 µM (≈ 0.372 to 7.43 µg/mL).
The corresponding values for `COc1c(C(=O)Nc2ccc3oc(C)nc3c2)sc2nc(N3CCOCC3)sc12` [Compound 172] are 269 °C, more than 20 µM and more than 20 µM.
The corresponding values for `CCN(CC)C(=O)c1cc2sc(N3CCCCC3)nc2s1` [Compound 57] are 84 °C, 1 to 20 µM (≈ 0.323 to 6.47 µg/mL) and 1 to 20 µM (≈ 0.323 to 6.47 µg/mL).
The like results for `O=C(Nc1ccc(N2CCC(c3ccc(Cl)cc3)CC2)cc1)c1cc2sc(N3CCOCC3)nc2s1` [Compound 190] were, in that order, 281.1 °C, more than 20 µM and more than 20 µM.
In turn, `O=C(Nc1ccc(Oc2ccc(Cl)cc2)cc1)c1cc2sc(N3CCOCC3)nc2s1` [Compound 146] gave a melting point of 225 °C. Besides, in data set [1], the MIC50 is less than 1 µM. For the same compound, the MIC50 in data set [2] was in the range of 1 to 20 µM (≈ 0.472 to 9.44 µg/mL).
The corresponding values for `COc1ccc(NC(=O)c2cc3sc(N4CCCC(N)C4)nc3s2)cc1` (stereo not drawn) [Compound 119] are 232 °C, less than 1 µM and more than 20 µM.
`COc1ccc(NC(=O)c2cc3sc(NC4CCCCC4)nc3s2)cc1` [Compound 79] returned a melting point of 231 °C. Besides, the MIC50 in data set [1] was less than 1 µM. Besides, in data set [2], the MIC50 is more than 20 µM.
The corresponding values for `O=C(Nc1ccc(-c2n[nH]cc2F)cc1)c1cc2sc(N3CCOCC3)nc2s1.O=C(O)C(F)(F)F` [Compound 159] are 287.2 °C, less than 1 µM and 1 to 20 µM.
The like results for `O=C(Nc1ccc(CN2CCN(c3ccc(Cl)cc3)CC2)cc1)c1cc2sc(N3CCOCC3)nc2s1` [Compound 199] were, in that order, 249.9 °C, less than 1 µM and 1 to 20 µM (≈ 0.554 to 11.1 µg/mL).
In the case of `COc1ncc(NC(=O)c2cc3sc(N4CCCCC4)nc3s2)cn1` [Compound 55], the melting point is 219 °C. In addition, the MIC50 in data set [1] was less than 1 µM. The MIC50 in data set [2] is more than 20 µM.
`Cn1cc2ccc(NC(=O)c3cc4sc(N5CCOCC5)nc4s3)cc2n1` [Compound 132] showed a melting point of 313.7 °C. In data set [1], the MIC50 is less than 1 µM. In data set [2], the MIC50 was more than 20 µM.
The like results for `COc1ccc(NC(=O)c2cc3sc(N4CCC(C(=O)N5CCOCC5)CC4)nc3s2)cc1` [Compound 125] were, in that order, 268 °C, less than 1 µM and less than 1 µM.
The corresponding values for `COc1ccc(NC(=O)c2ccc3nc(N4CCCCC4)ccc3c2)cc1` [Compound 17] are 209 °C, more than 20 µM and 1 to 20 µM (≈ 0.361 to 7.23 µg/mL).
The like results for `O=C(Nc1ccc(F)c(F)c1)c1ccc2nc(N3CCCCC3)ccc2c1` [Compound 16] were, in that order, 194 °C, more than 20 µM and more than 20 µM.
Regarding `COc1ccc(NC(=O)c2cc3sc(C(C)C)nc3s2)cc1` [Compound 115], the melting point worked out at 149 °C. In addition, in data set [1], the MIC50 is less than 1 µM. For the same compound, the MIC50 in data set [2] fell in the range of 1 to 20 µM (≈ 0.332 to 6.65 µg/mL).
As to `O=C(c1cc2nc(N3CCCCC3)sc2s1)N1CCOCC1` [Compound 26], the melting point was 188 °C. For the same compound, in data set [1], the MIC50 is more than 20 µM. Moreover, in data set [2], the MIC50 was more than 20 µM.
`N#Cc1ccc(NC(=O)c2cc3sc(N4CCCCC4)nc3s2)cc1` [Compound 54] displayed a melting point of 177 °C. In addition, the MIC50 in data set [1] was less than 1 µM. Besides, the MIC50 in data set [2] was less than 1 µM.
As for `Cc1nc2cc(NC(=O)N3CCc4sc(N5CCOCC5)cc4C3)ccc2o1` [Compound 191], the melting point was found to be 171.7 °C. In addition, in data set [1], the MIC50 was more than 20 µM. Also, the MIC50 in data set [2] is more than 20 µM.
`Cc1nc2cc(NC(=O)c3cc4sc(N(C)CCO)nc4s3)ccc2o1` [Compound 201] came in with a melting point of 226.3 °C. In addition, the MIC50 in data set [1] fell in the range of 1 to 20 µM (≈ 0.388 to 7.77 µg/mL). Besides, the MIC50 in data set [2] was less than 1 µM.
The corresponding values for `Cc1nc2cc(NC(=O)c3sc4nc(N5CCOCC5)sc4c3Br)ccc2o1` [Compound 157] are 269 °C, more than 20 µM and more than 20 µM.
The like results for `COc1ccc(NC(=O)c2cc3sc(N)nc3s2)cc1` [Compound 64] were, in that order, 260 °C, 1 to 20 µM (≈ 0.305 to 6.11 µg/mL) and more than 20 µM.
The like results for `CC(C)(C)OC(=O)Nc1cc2sc(N3CCCCC3)nc2s1` [Compound 81] were, in that order, 157 °C, more than 20 µM and more than 20 µM.
`O=C(Nc1ccc(-c2cc3n(n2)CCO3)cc1)c1cc2sc(N3CCOCC3)nc2s1` [Compound 164] showed a melting point of 361.2 °C. Further, the MIC50 in data set [1] is more than 20 µM. In addition, in data set [2], the MIC50 was more than 20 µM.
In turn, `Cc1nc2cc(NC(=O)c3cc4sc(N5CCOCC5)nc4s3)ccc2o1` [Compound 83] registered a melting point of 268.3 °C. Besides, the MIC50 in data set [1] was less than 1 µM. The MIC50 in data set [2] was less than 1 µM.
Turning to `CC1CCN(c2ccc(NC(=O)c3cc4sc(N5CCOCC5)nc4s3)cc2)CC1` [Compound 194], the melting point amounted to 278 °C. In addition, in data set [1], the MIC50 is less than 1 µM. Further, in data set [2], the MIC50 is 1 to 20 µM (≈ 0.443 to 8.85 µg/mL).
The corresponding values for `COc1ccc(NC(=O)c2cc3sc(N4CCC(F)(F)CC4)nc3s2)cc1` [Compound 72] are 263.5 °C, less than 1 µM and 1 to 20 µM (≈ 0.409 to 8.19 µg/mL).
The corresponding values for `Cc1nc2cc(NC(=O)c3cc4sc(N5CCOCC5)nc4s3)c(F)cc2o1` [Compound 181] are 287 °C, more than 20 µM and more than 20 µM.
The like results for `COc1ccc(NC(=O)c2cc3sc(N4CCCC(O)C4)nc3s2)cc1` (stereo not drawn) [Compound 96] were, in that order, 238 °C, less than 1 µM and less than 1 µM.
With `Cc1nc2cc(NC(=O)c3sc4nc(N5CCOCC5)sc4c3C)ccc2o1` [Compound 163], the melting point is 226 °C. In addition, the MIC50 in data set [1] was more than 20 µM. Further, the MIC50 in data set [2] is more than 20 µM.
Consider `O=C(Nc1ccc(Cl)cc1)c1cc2sc(N3CCCCC3)nc2s1` [Compound 45], for which the melting point is 275.2 °C. Also, the MIC50 in data set [1] was less than 1 µM. For the same compound, the MIC50 in data set [2] is 1 to 20 µM (≈ 0.378 to 7.56 µg/mL).
The corresponding values for `Cc1nc2cc(NC(=O)c3cc4sc(N5CCNCC5)nc4s3)ccc2o1` [Compound 140] are 235.3 °C, 1 to 20 µM (≈ 0.4 to 7.99 µg/mL) and 1 to 20 µM (≈ 0.4 to 7.99 µg/mL).
The like results for `CN(C)C(=O)C1CCN(c2nc3sc(C(=O)Nc4ccc(F)nc4)cc3s2)CC1` [Compound 137] were, in that order, 295.9 °C, 1 to 20 µM (≈ 0.434 to 8.67 µg/mL) and less than 1 µM.
The like results for `COc1cc(NC(=O)c2cc3nc(N4CCCCC4)sc3s2)cc(OC)c1` [Compound 4] were, in that order, 231.2 °C, more than 20 µM and more than 20 µM.
For the compound `O=C(Nc1ccc(F)cc1)c1cc2nc(N3CCCCC3)sc2s1` [Compound 8], the melting point was 218 °C. The MIC50 in data set [1] lay in the range of 1 to 20 µM (≈ 0.361 to 7.23 µg/mL). In addition, the MIC50 in data set [2] lay within 1 to 20 µM (≈ 0.361 to 7.23 µg/mL).
`CC(=O)c1ccc(NC(=O)c2cc3sc(N4CCOCC4)nc3s2)cc1` [Compound 188] returned a melting point of 248 °C. Further, the MIC50 in data set [1] was less than 1 µM. In data set [2], the MIC50 is less than 1 µM.
In turn, `COC(=O)c1ccc(CCNC(=O)c2cc3sc(N4CCCCC4)nc3s2)cc1` [Compound 43] showed a melting point of 212.9 °C. In addition, the MIC50 in data set [1] was less than 1 µM. The MIC50 in data set [2] fell in the range of 1 to 20 µM (≈ 0.43 to 8.59 µg/mL).
The like results for `O=C(Nc1ccc(F)cc1)c1cc2sc(N3CCCCC3)nc2s1` [Compound 53] were, in that order, 233 °C, less than 1 µM and less than 1 µM.
